Assay results taken from PMC3252747 (Bioorganic & medicinal chemistry letters, 2009).

Biological target: cloned h5-HT2A receptor (Homo sapiens, UniProt P28223)
Experiment: 5-HT2A competitive radioligand binding assay
Conditions: ratio of H1 Ki to 5-HT2A Ki

Sequence of cloned h5-HT2A receptor (P28223 whole entry): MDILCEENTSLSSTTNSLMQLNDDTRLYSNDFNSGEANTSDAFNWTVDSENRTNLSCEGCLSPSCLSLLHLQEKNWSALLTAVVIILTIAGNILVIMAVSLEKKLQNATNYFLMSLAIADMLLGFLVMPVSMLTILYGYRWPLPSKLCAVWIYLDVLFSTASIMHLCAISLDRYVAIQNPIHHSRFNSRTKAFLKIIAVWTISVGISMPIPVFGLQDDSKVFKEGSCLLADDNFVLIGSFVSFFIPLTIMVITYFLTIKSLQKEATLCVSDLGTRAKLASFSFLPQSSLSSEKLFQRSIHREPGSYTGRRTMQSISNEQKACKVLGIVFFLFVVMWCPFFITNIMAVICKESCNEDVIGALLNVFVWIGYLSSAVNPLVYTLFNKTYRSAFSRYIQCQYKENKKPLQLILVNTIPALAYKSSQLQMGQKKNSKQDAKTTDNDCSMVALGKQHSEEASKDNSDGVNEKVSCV

COc1ccc2c3c(ccc2c1)Cc1ccccc1C3CN (stereo not shown) [Compound 2b, (7,12-dihydrotetraphene-3-methoxy-12-yl)methanamine]
selectivity for 5-HT2A over the H1 receptor: 100 fold
